Test results as given in patent US12234216B2, “Isotopologues salts, crystalline forms, stereoisomers, of methylone and ethylone and methods of use thereof” (Terran Biosciences Inc., priority 2021, dated 2025).
Counter-ions that a name gives are not always drawn.

Legend:
[1] = Solubility screen (solvent aliquots, visual inspection); assay type: physicochemical
Description: The experiments were carried out by adding the test solvent in aliquots to weighed portions of solid. Whether dissolution had occurred was judged by visual inspection after addition of each solvent aliquot. Solubility numbers recorded in Table 4 were calculated by dividing the weight of the sample by the total amount of solvent used to dissolve the sample. The actual solubilities may be greater than the numbers calculated because of the use of solvent aliquots that were too large or because of slow dissolution rates. All solubility measurements were carried out at room temperature unless noted otherwise.

[2] = Dynamic vapor sorption (DVS); assay type: physicochemical
Male Sprague-Dawley rats = assay: Rat elevated zero-maze model of anxiety; assay type: in vivo
Source text: The rat zero-maze model is a refined alternative to the plus-maze, the most widely used animal model of anxiety, and consists of an elevated annular platform, divided equally into four quadrants. Two opposite quadrants are enclosed by Perspex walls on both the inner and the outer edges of the platform, while the remaining two opposite quadrants are open being enclosed only by a Perspex “lip”. Animals will show a preference for the closed areas, and avoidance of the open sections is assumed to stem from a rodent's natural aversion to open, exposed spaces. The primary index of anxiety, which reflect changes in open arm preference, is the percentage of time spent on the open areas. A reduction in the amount of activity on the open areas is considered to reflect an increase in anxiety. Other, ethologically-based behaviours are also assessed as indices of anxiety. One of the most important is stretched attend postures (SAP) from closed to open quadrants. […] Shepherd, J K; et al., (1994) Behavioural and pharmacological validation of the elevated “zero-maze” as an animal model of anxiety. Psychopharmacol., 116:56-64.
Male Sprague-Dawley 200-250 g (Envigo UK) rats were used. Animals were group-housed (5 per cage; cage size: 40×40×20 cm) in a temperature-controlled environment (22±2° C.), under a 12 h light-dark cycle (lights on: 08:00 hours) for one week prior to testing. Food and water were freely available. Number of animals per group=5. Animals were moved into the experimental room 16-24 hours before testing.
The elevated 0-maze comprises a black Perspex annular platform (105 cm diameter, 10 cm width) elevated to 65 cm above ground level, divided equally into four quadrants. Two opposite quadrants are enclosed by clear red Perspex walls (27 cm high) on both the inner and outer edges of the platform, while the remaining two opposite quadrants are surrounded only by a Perspex “lip” (1 cm high) which serves as a tactile guide to animals on these open areas.
Subjects were weighed and tail marked before being injected. After a specified pre-treatment time, subjects were placed in a closed quadrant and a 5-min test period were recorded on videotape for subsequent analysis. The maze were cleaned with 5% methanol/water solution and dried thoroughly between test sessions. Behavioural measures comprise percentage time spent on the open areas (% TO) and frequency of stretched attend postures (SAP) from closed to open quadrants. Since the control groups were all treated identically with the same vehicle these were combined to increase power. The Chlordiazepoxide groups were also treated identically with the same dose so these were also combined to increase power. Animals are scored as being in the open area when all four paws were in an open quadrant and in the closed area only when all four paws have passed over the open-closed divide. All testing were carried out between 9.00 and 16.00 hours.
For each study, a 1-way ANOVA was conducted across vehicle, CDP, and drug treatment groups. Each group was compared to the vehicle group and a p-value for treatment determined by Fishers Least Significant Difference (LSD) test. This analysis was performed in GraphPad Prism (Version 9). Formulations: […]
Intraperitoneal (IP): Racemic methylone HCl was formulated in Vehicle 1 (Saline) for injection to concentrations of 1, 3 and 6 mg/mL to provide doses of 5, 15 and 30 mg/kg when administered ip in 5 mL/kg dosing volumes.
Intraperitoneal (IP): S-methylone HCl was formulated in Vehicle 1 (Saline) for injection to concentrations of 0.5, 1, 1.5, 3 and 6 mg/mL to provide doses of 2.5, 5, 7.5, 15 and 30 mg/kg when administered ip in 5 mL/kg dosing volumes.
Intraperitoneal (IP): R-methylone HCl was formulated in Vehicle 1 (Saline) for injection to concentrations of 1, 3 and 6 mg/mL to provide doses of 5, 15 and 30 mg/kg when administered ip in 5 mL/kg dosing volumes. […]

## CNC(C)C(=O)c1ccc2c(c1)OCO2 (racemic) [(rac)-Methylone Hydrochloride, 3,4-methylenedioxy-N-methylcathinone hydrochloride]
[1]; MeOH, room temperature
  Solubility: 48 mg/mL
[1]; MeOH/CHCl3 50/50, room temperature
  Solubility: 45 mg/mL
[2]; DVS (FIG. 26)
  relative humidity above which water uptake is seen: above 75 % RH
[2]; between 5% RH and 95% RH
  physical stability after the moisture sorption-desorption analysis: physically stable
[2]; exposed to 75% RH for 2 hours
  behaviour of the material on humidity exposure: became tacky and stuck to the vial
Male Sprague-Dawley rats; 5 mg/kg ip
  overall effect on anxiety: anxiogenic effect
Male Sprague-Dawley rats; 5 mg/kg ip, vs placebo
  time spent in the open arms: decrease in time spent in the open arms vs placebo
Male Sprague-Dawley rats; 15 mg/kg ip
  frequency of SAPs: dose dependent decrease in SAPs
  overall effect on anxiety: mixed anxiogenic anxiolytic effect
Male Sprague-Dawley rats; 15 mg/kg ip vs chlordiazepoxide 6 mg/kg ip
  decrease in SAPs compared with chlordiazepoxide: not as effective as chlordiazepoxide
Male Sprague-Dawley rats; 15 mg/kg ip, vs placebo
  time spent in the open arms: no difference from placebo in time spent in the open arms
Male Sprague-Dawley rats; 30 mg/kg ip
  frequency of SAPs: decrease in SAPs
  time spent in the open arms: significant decrease in time spent in the open arms
Male Sprague-Dawley rats; high dose level
  anxiolytic effects compared with chlordiazepoxide: anxiolytic effects as effective as chlordiazepoxide
Male Sprague-Dawley rats; lower doses, ip
  anxiogenic effects at lower doses: anxiogenic effects at lower doses
Male Sprague-Dawley rats; specific doses, ip, 30 min pretest, FIGS. 62-64
  time in the open arms: increase time in the open arms
Male Sprague-Dawley rats; specific doses, ip, 30 min pretest, vs chlordiazepoxide 6 mg/kg, FIGS. 65-67
  frequency of SAPs: decreased the frequency of SAPs as effectively as the benzodiazepine chlordiazepoxide
